The record followed here is a melting point compilation (Tetko et al.; mined from patent text by program, amines drawn as free bases though some values may be those of a salt).

What is called melting point is the temperature, or range, at which the solid turns liquid.

Some results are limits rather than exact numbers.

The compound `CCOc1ccc(-c2ccc(C3COC(c4c(Cl)cncc4Cl)=N3)cc2)cc1` (stereo not given) displayed a melting point of 121 to 122 °C. With `N#Cc1nc2ccc(Cl)cc2c2c1ncn2-c1ccccc1Cl` the figure was 248 to 250 °C; with `O=C(NC(Cc1ccc(OCc2ccccc2)cc1)C(=O)O)c1nc2ccc(-c3ccc(Cl)cc3)cc2[nH]1` (stereo not given), 260 to 261 °C. In the case of `CN(CC(=O)O)C(=O)c1cccc2c(Br)cccc12` it was 205 °C; in that of `COc1ccc(OCCCCBr)c(C2(SC)Sc3ccccc3N(C)C2=O)c1` (stereo not given), 102 to 103 °C. In the case of `COC(=O)c1csc2c(=O)cc(C(F)(F)F)oc12` it was 148 to 158 °C. As to `CS(=O)(=O)c1ccc(C(Cc2ccc(F)cc2)C(=O)Nc2nc3ccccc3o2)cc1` (stereo not given), the melting point is 109 to 110 °C. In turn, `COC(=O)c1ccc(C#CCO)cc1` displayed a melting point of 81 to 82 °C.

On to `Nc1nc2c(c(Nc3ccc(C(F)(F)F)cc3)n1)-c1ccccc1C2`, for which the melting point fell in the range of 229 to 231 °C. With `CNc1nc(NS(=O)(=O)c2ccc(N)cc2)cc(N2CCCC2)n1` the figure was more than 300 °C; with `O=C(O)CCC(=O)c1ccc(NC(=O)c2ccc(F)cc2)cc1`, 253 to 255 °C. With `CCc1nnc(-c2ccc(N(C)C)c(C)c2)n1-c1ccc(OC)cc1` the figure was 131 °C; with `COc1cc2ncnc(Nc3ccc4ccccc4n3)c2cc1OC`, 215 to 216 °C. Take `COc1cc(C)c(C=CC(C)=CC=CC(=O)O)c(C)c1C`: the melting point fell in the range of 189 to 191 °C. The compound `COc1ccc(-c2nnc(C)nc2-c2ccc(OC)cc2)cc1` displayed a melting point of 109 to 113 °C. In the case of `CC1COCc2nc3cnc4cc(C=CS(C)(=O)=O)ccc4c3n21` (stereo not given) it was 249 to 250 °C; in that of `CC(C)c1cc(C(=O)O)cc(C(C)C)c1O`, 147 °C.

In the case of `CCc1[nH]n(C2CCCC2)c2nc(Cc3ccncc3)nc(=O)c1-2`, the melting point is 162 to 164 °C. With `O=C1C2CCCC(C(=O)N2Cc2ccccc2)N1Cc1ccccc1` the figure was 201 to 202 °C; with `Cn1c(=O)c2ncn3c2n(c1=O)CC=C3c1cccc(C(F)(F)F)c1`, 287 to 290 °C; with `NS(=O)(=O)c1cc(CCNC(=O)/C=C/c2cccs2)ccc1-c1ccco1`, 165 to 166 °C.

The compound `NS(=O)(=O)c1ccc(-n2nc(C(F)F)cc2C2CCCCC2)cc1` had a melting point of 199 to 203 °C. As to `CCCCCOc1ccc2cc(CC[C@@](C)(N)COP(=O)(O)O)ccc2c1`, the melting point was in the range of 266 to 267 °C. `Cc1nc2c(Br)cc(Br)cn2c1C`: the melting point is more than 90 °C. Regarding `O=C1CN(Cc2ccccc2)CC2c3ccccc3CCCN12` (stereo not given), the melting point was 125 to 128 °C. The compound `COc1ccc(Cn2c(=O)c(C(=O)NC3CCCCC3)c(O)c3cc(Cl)cnc32)cc1` came in with a melting point of 193 °C.

In the case of `CN(CC(=O)OC(C)(C)C)c1nccc(-c2nc(=O)c3ccccc3s2)n1`, the melting point lay in the range of 186 to 188 °C. On to `CCN(C(=O)CN(C(=O)CNC(=O)Nc1cccc(C)c1)c1ccccc1)c1ccccc1`, for which the melting point came out at 158 °C. As to `CCC(C)(C)Nc1c(NCc2ccc(Cl)cc2Cl)c(=O)c1=O`, the melting point is 196 to 197 °C. In the case of `COc1cccc(C2=C(C#N)C(c3ccccc3[N+](=O)[O-])c3c[nH]nc3N2)c1` (stereo not given) it was 220 °C; in that of `CCCCOCCOc1ccc(-c2ccc(N(C)Cc3cnn(C)c3)c(C=C(C)C(=O)O)c2)cc1`, 140 °C; in that of `CN1C(=O)N2C(=NC1(C)C)N(C(=O)Nc1ccc(Cl)c(Cl)c1)c1ccccc12`, 198 to 200 °C. The compound `COc1cc(Nc2ccc(CCCc3ccc(Cl)c(Cl)c3)cc2)c(C(=O)O)cc1[N+](=O)[O-]` gave a melting point of 200 to 201 °C. As to `CON1C(C)(C)CC(OC(=O)NNC(=O)OC2CC(C)(C)N(OC)C(C)(C)C2)CC1(C)C`, the melting point was 147 to 149 °C. With `CCCc1cc(C(=O)O)nn1C` the figure was 120 to 122 °C.
